Measurements as given in the kinase profiling compilation of Christmann-Franck et al. (2016).

Key:
Experiment in all cases: KINOMEscan competition binding
Settings in all cases: compound 10.0 µM
AXL (human) = AXL (human) (UniProt P30530)
BRAF (human) = BRAF (human) (UniProt P15056)
CDC42BPG (human) = CDC42BPG (human) (UniProt Q6DT37)
CDK16 (human) = CDK16 (human) (UniProt Q00536)
CDK18 (human) = CDK18 (human) (UniProt Q07002)
CDKL1 (human) = CDKL1 (human) (UniProt Q00532)
CRK2 (P.falciparum) = CRK2 (P.falciparum) (UniProt P61075)
CSNK1E (human) = CSNK1E (human) (UniProt P49674)
CSNK2A2 (human) = CSNK2A2 (human) (UniProt P19784)
DAPK3 (human) = DAPK3 (human) (UniProt O43293)
Sequence of DAPK3 (human) (O43293 whole entry, looked up): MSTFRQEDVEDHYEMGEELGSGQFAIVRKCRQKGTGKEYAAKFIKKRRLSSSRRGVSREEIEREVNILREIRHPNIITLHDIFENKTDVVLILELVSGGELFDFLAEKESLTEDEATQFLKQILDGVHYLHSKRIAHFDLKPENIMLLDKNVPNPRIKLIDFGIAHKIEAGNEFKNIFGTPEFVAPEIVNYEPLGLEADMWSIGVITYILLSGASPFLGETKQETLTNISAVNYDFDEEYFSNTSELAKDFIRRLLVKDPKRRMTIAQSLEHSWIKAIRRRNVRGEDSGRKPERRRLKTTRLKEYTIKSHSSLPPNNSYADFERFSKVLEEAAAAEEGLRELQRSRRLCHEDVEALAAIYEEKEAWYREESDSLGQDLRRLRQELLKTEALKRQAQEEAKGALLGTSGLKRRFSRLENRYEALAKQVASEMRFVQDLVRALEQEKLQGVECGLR

EPHA4 (human) = EPHA4 (human) (UniProt P54764)
EPHA6 (human) = EPHA6 (human) (UniProt Q9UF33)
FGFR3 (human) = FGFR3 (human) (UniProt P22607)
[1] = system: FLT3 (human), P36888 [R834Q]
FYN (human) = FYN (human) (UniProt P06241)
Sequence of FYN (human) (P06241 whole entry, looked up): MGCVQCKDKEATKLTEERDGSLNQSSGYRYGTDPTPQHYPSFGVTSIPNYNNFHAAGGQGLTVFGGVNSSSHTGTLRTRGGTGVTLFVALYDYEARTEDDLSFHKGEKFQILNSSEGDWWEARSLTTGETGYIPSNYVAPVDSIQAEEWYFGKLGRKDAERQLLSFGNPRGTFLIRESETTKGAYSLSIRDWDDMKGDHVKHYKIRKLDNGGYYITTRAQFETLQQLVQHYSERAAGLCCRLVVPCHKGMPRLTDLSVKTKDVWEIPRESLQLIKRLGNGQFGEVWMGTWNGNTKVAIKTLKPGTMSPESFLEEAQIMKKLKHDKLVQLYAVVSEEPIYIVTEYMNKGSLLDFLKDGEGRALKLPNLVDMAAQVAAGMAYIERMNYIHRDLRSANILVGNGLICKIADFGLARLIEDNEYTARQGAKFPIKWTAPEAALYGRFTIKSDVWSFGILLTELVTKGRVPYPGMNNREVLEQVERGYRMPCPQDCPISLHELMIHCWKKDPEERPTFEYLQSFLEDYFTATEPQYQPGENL

IGF1R (human) = IGF1R (human) (UniProt P08069)
IKBKE (human) = IKBKE (human) (UniProt Q14164)
ITK (human) = ITK (human) (UniProt Q08881)
[2] = molecular target: JAK2 JH1 catalytic (human) (UniProt O60674)
LIMK1 (human) = LIMK1 (human) (UniProt P53667)
Sequence of LIMK1 (human) (P53667 whole entry, looked up): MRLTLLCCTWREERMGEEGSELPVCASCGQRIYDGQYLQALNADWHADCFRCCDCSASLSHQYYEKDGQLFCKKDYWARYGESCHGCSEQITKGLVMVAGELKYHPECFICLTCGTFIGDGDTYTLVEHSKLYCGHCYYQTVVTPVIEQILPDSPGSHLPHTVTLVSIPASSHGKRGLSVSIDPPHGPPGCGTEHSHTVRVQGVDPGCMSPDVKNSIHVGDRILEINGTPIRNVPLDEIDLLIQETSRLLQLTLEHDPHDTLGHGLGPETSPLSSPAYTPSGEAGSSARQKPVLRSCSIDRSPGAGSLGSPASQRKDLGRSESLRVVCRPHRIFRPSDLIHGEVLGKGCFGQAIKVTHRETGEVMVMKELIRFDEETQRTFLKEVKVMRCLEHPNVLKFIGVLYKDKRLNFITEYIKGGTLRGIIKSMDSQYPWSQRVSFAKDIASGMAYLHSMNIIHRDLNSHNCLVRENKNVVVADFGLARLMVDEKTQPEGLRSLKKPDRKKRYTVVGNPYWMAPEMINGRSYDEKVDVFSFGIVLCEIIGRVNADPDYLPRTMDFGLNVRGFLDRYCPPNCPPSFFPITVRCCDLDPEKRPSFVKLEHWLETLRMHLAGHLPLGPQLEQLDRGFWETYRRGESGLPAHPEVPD

MAP2K1 (human) = MAP2K1 (human) (UniProt Q02750)
MAP3K12 (human) = MAP3K12 (human) (UniProt Q12852)
MAP3K3 (human) = MAP3K3 (human) (UniProt Q99759)
MAPK12 (human) = MAPK12 (human) (UniProt P53778)
Sequence of MAPK12 (human) (P53778 whole entry, looked up): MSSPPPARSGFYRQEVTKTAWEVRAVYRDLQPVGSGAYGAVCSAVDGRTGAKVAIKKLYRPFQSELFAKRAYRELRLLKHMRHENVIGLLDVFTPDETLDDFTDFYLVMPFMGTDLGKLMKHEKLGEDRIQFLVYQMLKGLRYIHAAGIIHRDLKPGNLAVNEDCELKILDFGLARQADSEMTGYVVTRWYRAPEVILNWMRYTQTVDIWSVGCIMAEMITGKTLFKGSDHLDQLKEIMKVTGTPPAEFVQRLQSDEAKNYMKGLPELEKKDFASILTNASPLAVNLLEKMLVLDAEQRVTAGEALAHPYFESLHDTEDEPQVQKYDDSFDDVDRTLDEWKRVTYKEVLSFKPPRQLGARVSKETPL

MAPKAPK2 (human) = MAPKAPK2 (human) (UniProt P49137)
MAST1 (human) = MAST1 (human) (UniProt Q9Y2H9)
MUSK (human) = MUSK (human) (UniProt O15146)
Sequence of MUSK (human) (O15146 whole entry, looked up): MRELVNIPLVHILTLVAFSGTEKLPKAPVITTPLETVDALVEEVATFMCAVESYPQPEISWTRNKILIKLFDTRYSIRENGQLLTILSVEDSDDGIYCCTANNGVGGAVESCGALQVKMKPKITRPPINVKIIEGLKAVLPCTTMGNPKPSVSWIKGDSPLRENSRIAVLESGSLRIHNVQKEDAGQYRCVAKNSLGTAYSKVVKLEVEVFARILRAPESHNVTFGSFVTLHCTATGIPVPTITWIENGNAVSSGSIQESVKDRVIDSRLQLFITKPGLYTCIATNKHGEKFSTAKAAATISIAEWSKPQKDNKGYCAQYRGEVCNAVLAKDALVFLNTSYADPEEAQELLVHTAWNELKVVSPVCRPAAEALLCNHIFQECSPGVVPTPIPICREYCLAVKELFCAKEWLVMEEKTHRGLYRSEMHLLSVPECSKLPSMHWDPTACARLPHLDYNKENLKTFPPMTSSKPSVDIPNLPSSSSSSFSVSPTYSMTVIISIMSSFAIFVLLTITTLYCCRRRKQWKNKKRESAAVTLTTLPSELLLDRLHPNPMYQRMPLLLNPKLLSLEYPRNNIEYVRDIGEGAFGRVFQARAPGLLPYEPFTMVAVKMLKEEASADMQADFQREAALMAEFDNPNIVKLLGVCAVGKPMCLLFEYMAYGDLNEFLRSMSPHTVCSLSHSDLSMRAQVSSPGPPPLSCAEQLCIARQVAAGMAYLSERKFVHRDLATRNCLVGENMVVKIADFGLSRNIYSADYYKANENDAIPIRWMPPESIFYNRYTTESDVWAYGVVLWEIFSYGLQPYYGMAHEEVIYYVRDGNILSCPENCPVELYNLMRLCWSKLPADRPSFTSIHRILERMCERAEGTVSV

PIP4K2B (human) = PIP4K2B (human) (UniProt P78356)
PKN3 (M.tuberculosis) = PKN3 (M.tuberculosis) (UniProt Q6P5Z2)
PLK2 (human) = PLK2 (human) (UniProt Q9NYY3)
Sequence of PLK2 (human) (Q9NYY3 whole entry, looked up): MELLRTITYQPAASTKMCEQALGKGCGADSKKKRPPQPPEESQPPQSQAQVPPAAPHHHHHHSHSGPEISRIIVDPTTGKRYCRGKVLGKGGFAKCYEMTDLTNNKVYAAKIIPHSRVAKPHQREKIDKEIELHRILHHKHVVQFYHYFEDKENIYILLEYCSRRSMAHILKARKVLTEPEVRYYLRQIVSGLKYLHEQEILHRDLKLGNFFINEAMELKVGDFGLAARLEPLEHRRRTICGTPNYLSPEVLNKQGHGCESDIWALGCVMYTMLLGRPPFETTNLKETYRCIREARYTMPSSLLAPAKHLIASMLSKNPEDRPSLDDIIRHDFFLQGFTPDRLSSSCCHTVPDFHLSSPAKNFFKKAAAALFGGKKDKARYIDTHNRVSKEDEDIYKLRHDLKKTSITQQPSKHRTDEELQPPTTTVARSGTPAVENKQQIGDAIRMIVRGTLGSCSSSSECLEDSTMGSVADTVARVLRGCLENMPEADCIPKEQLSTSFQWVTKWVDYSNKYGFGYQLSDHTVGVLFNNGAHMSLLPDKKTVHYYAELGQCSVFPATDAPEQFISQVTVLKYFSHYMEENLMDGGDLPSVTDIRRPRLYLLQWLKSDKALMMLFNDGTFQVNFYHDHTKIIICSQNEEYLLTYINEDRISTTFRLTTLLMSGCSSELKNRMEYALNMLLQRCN

PRKACB (human) = PRKACB (human) (UniProt P22694)
RIOK2 (human) = RIOK2 (human) (UniProt Q9BVS4)
STK32B (human) = STK32B (human) (UniProt Q9NY57)
TNNI3K (human) = TNNI3K (human) (UniProt Q59H18)
ULK3 (human) = ULK3 (human) (UniProt Q6PHR2)
[3] = system: ABL1 (human), P00519 [M351T]
[4] = system: EGFR (human), P00533 [747-751 del / S ins]
[5] = system: EGFR (human), P00533 [752-759 del]
KDR (human) = KDR (human) (UniProt P35968)
Sequence of KDR (human) (P35968 whole entry, looked up): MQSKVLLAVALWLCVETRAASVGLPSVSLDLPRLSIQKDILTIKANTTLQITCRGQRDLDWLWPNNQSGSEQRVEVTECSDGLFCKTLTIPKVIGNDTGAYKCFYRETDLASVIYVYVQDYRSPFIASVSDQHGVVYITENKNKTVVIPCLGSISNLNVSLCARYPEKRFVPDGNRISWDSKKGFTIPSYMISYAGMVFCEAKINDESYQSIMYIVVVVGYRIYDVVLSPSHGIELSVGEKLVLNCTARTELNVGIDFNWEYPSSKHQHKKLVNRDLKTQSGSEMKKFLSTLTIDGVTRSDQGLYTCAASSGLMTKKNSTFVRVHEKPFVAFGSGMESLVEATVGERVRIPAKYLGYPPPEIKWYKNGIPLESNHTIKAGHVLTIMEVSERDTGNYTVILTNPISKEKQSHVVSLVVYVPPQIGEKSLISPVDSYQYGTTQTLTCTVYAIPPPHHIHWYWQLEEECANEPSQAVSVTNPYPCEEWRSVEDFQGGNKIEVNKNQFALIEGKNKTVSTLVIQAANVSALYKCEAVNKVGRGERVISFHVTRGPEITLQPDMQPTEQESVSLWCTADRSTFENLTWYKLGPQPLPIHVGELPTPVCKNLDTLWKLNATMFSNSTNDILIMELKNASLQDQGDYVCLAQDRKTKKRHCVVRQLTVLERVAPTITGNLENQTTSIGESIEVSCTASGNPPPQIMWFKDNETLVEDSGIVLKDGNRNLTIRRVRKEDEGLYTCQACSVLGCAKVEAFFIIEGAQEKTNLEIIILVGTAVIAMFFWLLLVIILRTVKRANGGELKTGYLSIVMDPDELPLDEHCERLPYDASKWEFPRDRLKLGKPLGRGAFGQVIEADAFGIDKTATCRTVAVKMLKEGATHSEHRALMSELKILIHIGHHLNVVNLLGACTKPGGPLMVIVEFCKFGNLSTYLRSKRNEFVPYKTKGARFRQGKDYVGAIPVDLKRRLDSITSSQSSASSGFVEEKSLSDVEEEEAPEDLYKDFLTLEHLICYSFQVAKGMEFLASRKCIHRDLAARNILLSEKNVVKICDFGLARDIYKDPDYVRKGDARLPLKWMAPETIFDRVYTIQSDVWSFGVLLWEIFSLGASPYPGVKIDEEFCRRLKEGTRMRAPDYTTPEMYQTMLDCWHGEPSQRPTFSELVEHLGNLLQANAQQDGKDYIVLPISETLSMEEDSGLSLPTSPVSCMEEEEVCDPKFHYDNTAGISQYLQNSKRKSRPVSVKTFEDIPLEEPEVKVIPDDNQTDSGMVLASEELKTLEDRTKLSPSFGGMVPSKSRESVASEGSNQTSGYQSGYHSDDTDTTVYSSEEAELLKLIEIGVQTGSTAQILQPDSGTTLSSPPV

STK3 (human) = STK3 (human) (UniProt Q13188)
STK35 (human) = STK35 (human) (UniProt Q8TDR2)

CC(C)n1nc(-c2cc3cc(O)ccc3[nH]2)c2c(N)ncnc21
kinase still bound, per cent of control (AXL (human)): 21% | kinase still bound, per cent of control (BRAF (human)): 5.8% | kinase still bound, per cent of control (CDC42BPG (human)): 86% | per cent of control (CDK16 (human)): 98% | per cent of control (CDK18 (human)): 100% | per cent of control (CDKL1 (human)): 100% | kinase still bound, per cent of control (CRK2 (P.falciparum)): 93% | kinase still bound, per cent of control (CSNK1E (human)): 0.1% | kinase still bound, per cent of control (CSNK2A2 (human)): 3.5% | kinase still bound, per cent of control (DAPK3 (human)): 2.8% | kinase still bound, per cent of control (EPHA4 (human)): 36% | kinase still bound, per cent of control (EPHA6 (human)): 5.2% | kinase still bound, per cent of control (FGFR3 (human)): 9.2% | kinase still bound, per cent of control [1]: 16% | kinase still bound, per cent of control (FYN (human)): 4.6% | per cent of control (IGF1R (human)): 100% | kinase still bound, per cent of control (IKBKE (human)): 70% | kinase still bound, per cent of control (ITK (human)): 100% | kinase still bound, per cent of control [2]: 0.95% | kinase still bound, per cent of control (LIMK1 (human)): 73% | kinase still bound, per cent of control (MAP2K1 (human)): 0.25% | per cent of control (MAP3K12 (human)): 84% | kinase still bound, per cent of control (MAP3K3 (human)): 3.2% | kinase still bound, per cent of control (MAPK12 (human)): 59% | kinase still bound, per cent of control (MAPKAPK2 (human)): 100% | kinase still bound, per cent of control (MAST1 (human)): 87% | kinase still bound, per cent of control (MUSK (human)): 100% | kinase still bound, per cent of control (PIP4K2B (human)): 55% | kinase still bound, per cent of control (PKN3 (M.tuberculosis)): 24% | kinase still bound, per cent of control (PLK2 (human)): 13% | per cent of control (PRKACB (human)): 65% | kinase still bound, per cent of control (RIOK2 (human)): 38% | kinase still bound, per cent of control (STK32B (human)): 8.2% | kinase still bound, per cent of control (TNNI3K (human)): 14% | kinase still bound, per cent of control (ULK3 (human)): 65%

CCC(=O)N1CCN(c2ccc(-n3c(=O)ccc4cnc5ccc(-c6cnc7ccccc7c6)cc5c43)cc2C(F)(F)F)CC1
kinase still bound, per cent of control [3]: 100% | kinase still bound, per cent of control (AXL (human)): 46% | kinase still bound, per cent of control (BRAF (human)): 59% | kinase still bound, per cent of control (CDC42BPG (human)): 1.6% | per cent of control (CDK16 (human)): 91% | per cent of control (CDK18 (human)): 97% | per cent of control (CDKL1 (human)): 100% | kinase still bound, per cent of control (CRK2 (P.falciparum)): 97% | kinase still bound, per cent of control (CSNK1E (human)): 59% | kinase still bound, per cent of control (CSNK2A2 (human)): 11% | kinase still bound, per cent of control (DAPK3 (human)): 82% | kinase still bound, per cent of control [4]: 80% | kinase still bound, per cent of control [5]: 84% | kinase still bound, per cent of control (EPHA4 (human)): 90% | kinase still bound, per cent of control (EPHA6 (human)): 75% | kinase still bound, per cent of control (FGFR3 (human)): 42% | kinase still bound, per cent of control (FYN (human)): 49% | per cent of control (IGF1R (human)): 94% | kinase still bound, per cent of control (IKBKE (human)): 87% | kinase still bound, per cent of control (ITK (human)): 100% | kinase still bound, per cent of control [2]: 65% | kinase still bound, per cent of control (KDR (human)): 65% | kinase still bound, per cent of control (LIMK1 (human)): 15% | kinase still bound, per cent of control (MAP2K1 (human)): 100% | per cent of control (MAP3K12 (human)): 100% | kinase still bound, per cent of control (MAP3K3 (human)): 75% | kinase still bound, per cent of control (MAPK12 (human)): 71% | kinase still bound, per cent of control (MAPKAPK2 (human)): 100% | kinase still bound, per cent of control (MAST1 (human)): 93% | kinase still bound, per cent of control (MUSK (human)): 100% | kinase still bound, per cent of control (PIP4K2B (human)): 100% | kinase still bound, per cent of control (PKN3 (M.tuberculosis)): 64% | kinase still bound, per cent of control (PLK2 (human)): 85% | per cent of control (PRKACB (human)): 100% | kinase still bound, per cent of control (RIOK2 (human)): 24% | kinase still bound, per cent of control (STK3 (human)): 24% | kinase still bound, per cent of control (STK32B (human)): 87% | kinase still bound, per cent of control (STK35 (human)): 18% | kinase still bound, per cent of control (TNNI3K (human)): 66% | kinase still bound, per cent of control (ULK3 (human)): 100%

COC(=O)Nc1ccc(-c2nc(N3CCOCC3)c3cnn(C4CCN(C(=O)OC)CC4)c3n2)cc1
kinase still bound, per cent of control [3]: 100% | kinase still bound, per cent of control (AXL (human)): 100% | kinase still bound, per cent of control (BRAF (human)): 74% | kinase still bound, per cent of control (CDC42BPG (human)): 100% | per cent of control (CDK16 (human)): 100% | per cent of control (CDK18 (human)): 100% | per cent of control (CDKL1 (human)): 91% | kinase still bound, per cent of control (CRK2 (P.falciparum)): 95% | kinase still bound, per cent of control (CSNK1E (human)): 72% | kinase still bound, per cent of control (CSNK2A2 (human)): 83% | kinase still bound, per cent of control (DAPK3 (human)): 92% | kinase still bound, per cent of control [4]: 100% | kinase still bound, per cent of control [5]: 100% | kinase still bound, per cent of control (EPHA4 (human)): 88% | kinase still bound, per cent of control (EPHA6 (human)): 90% | kinase still bound, per cent of control (FGFR3 (human)): 99% | kinase still bound, per cent of control [1]: 76% | kinase still bound, per cent of control (FYN (human)): 99% | per cent of control (IGF1R (human)): 98% | kinase still bound, per cent of control (IKBKE (human)): 81% | kinase still bound, per cent of control (ITK (human)): 91% | kinase still bound, per cent of control [2]: 73% | kinase still bound, per cent of control (KDR (human)): 100% | kinase still bound, per cent of control (LIMK1 (human)): 100% | kinase still bound, per cent of control (MAP2K1 (human)): 100% | per cent of control (MAP3K12 (human)): 97% | kinase still bound, per cent of control (MAP3K3 (human)): 81% | kinase still bound, per cent of control (MAPK12 (human)): 0% | kinase still bound, per cent of control (MAPKAPK2 (human)): 100% | kinase still bound, per cent of control (MAST1 (human)): 81% | kinase still bound, per cent of control (MUSK (human)): 100% | kinase still bound, per cent of control (PIP4K2B (human)): 100% | kinase still bound, per cent of control (PKN3 (M.tuberculosis)): 73% | kinase still bound, per cent of control (PLK2 (human)): 96% | per cent of control (PRKACB (human)): 97% | kinase still bound, per cent of control (RIOK2 (human)): 79% | kinase still bound, per cent of control (STK3 (human)): 85% | kinase still bound, per cent of control (STK32B (human)): 100% | kinase still bound, per cent of control (STK35 (human)): 91% | kinase still bound, per cent of control (TNNI3K (human)): 100% | kinase still bound, per cent of control (ULK3 (human)): 88%

COc1ccc(-c2ccc3c(N4CCOCC4)nc(N4C[C@@H](C)O[C@@H](C)C4)nc3n2)cc1CO
kinase still bound, per cent of control [3]: 100% | kinase still bound, per cent of control (AXL (human)): 100% | kinase still bound, per cent of control (BRAF (human)): 81% | kinase still bound, per cent of control (CDC42BPG (human)): 65% | per cent of control (CDK16 (human)): 100% | per cent of control (CDK18 (human)): 100% | per cent of control (CDKL1 (human)): 100% | kinase still bound, per cent of control (CRK2 (P.falciparum)): 90% | kinase still bound, per cent of control (CSNK1E (human)): 87% | kinase still bound, per cent of control (CSNK2A2 (human)): 98% | kinase still bound, per cent of control (DAPK3 (human)): 89% | kinase still bound, per cent of control [4]: 82% | kinase still bound, per cent of control [5]: 100% | kinase still bound, per cent of control (EPHA4 (human)): 100% | kinase still bound, per cent of control (EPHA6 (human)): 100% | kinase still bound, per cent of control (FGFR3 (human)): 100% | kinase still bound, per cent of control [1]: 100% | kinase still bound, per cent of control (FYN (human)): 96% | per cent of control (IGF1R (human)): 100% | kinase still bound, per cent of control (IKBKE (human)): 100% | kinase still bound, per cent of control (ITK (human)): 88% | kinase still bound, per cent of control [2]: 71% | kinase still bound, per cent of control (KDR (human)): 98% | kinase still bound, per cent of control (LIMK1 (human)): 100% | kinase still bound, per cent of control (MAP2K1 (human)): 100% | per cent of control (MAP3K12 (human)): 100% | kinase still bound, per cent of control (MAP3K3 (human)): 76% | kinase still bound, per cent of control (MAPK12 (human)): 100% | kinase still bound, per cent of control (MAPKAPK2 (human)): 92% | kinase still bound, per cent of control (MAST1 (human)): 100% | kinase still bound, per cent of control (MUSK (human)): 100% | kinase still bound, per cent of control (PIP4K2B (human)): 100% | kinase still bound, per cent of control (PKN3 (M.tuberculosis)): 100% | kinase still bound, per cent of control (PLK2 (human)): 100% | per cent of control (PRKACB (human)): 96% | kinase still bound, per cent of control (RIOK2 (human)): 60% | kinase still bound, per cent of control (STK3 (human)): 85% | kinase still bound, per cent of control (STK32B (human)): 100% | kinase still bound, per cent of control (STK35 (human)): 96% | kinase still bound, per cent of control (TNNI3K (human)): 100% | kinase still bound, per cent of control (ULK3 (human)): 100%
